The values that follow are results of earlier work, collected in patent US10934346B2, “Modified T cell comprising a polynucleotide encoding an inducible stimulating molecule comprising MyD88, CD40 and FKBP12” (priority 2014, dated 2021).

The data set concerns CD40-dependent signaling cascades. To be noted: mouse, in vivo; cited from earlier work.

The structures appear in SMILES notation.

Consider `CC[C@H](C(=O)N1CCCC[C@H]1C(=O)O[C@H](CCc1ccc(OC)c(OC)c1)c1cccc(OCC(=O)NCC(CNC(=O)COc2cccc([C@@H](CCc3ccc(OC)c(OC)c3)OC(=O)[C@@H]3CCCCN3C(=O)[C@@H](CC)c3cc(OC)c(OC)c(OC)c3)c2)CN(C)C)c1)c1cc(OC)c(OC)c(OC)c1` [AP20187], for which the “induction of signaling in DCs” value was “led to the in vivo induction of CD40-dependent signaling cascades in murine DCs”.
